Like-named read-outs stand apart in the source and are kept apart here.
How the values were obtained:
[1] = biological target: T1, PLA2G16 (Homo sapiens, UniProt P53816); test: Enzyme activity assay for PLA2G16 (Red/Green BODIPY PC-A2 fluorescence); assay type: biochemical; details: His-tagged PLA2G16, 4 min pre-incubation, 2 nM to 50 μM; read-out: IC50 values of the compounds determined in the enzyme activity assay for PLA2G16
T1 construct: Hexa-His (N); made in house; host or cells: E. coli BL21(DE3)
T1 sequence (P53816 1-162): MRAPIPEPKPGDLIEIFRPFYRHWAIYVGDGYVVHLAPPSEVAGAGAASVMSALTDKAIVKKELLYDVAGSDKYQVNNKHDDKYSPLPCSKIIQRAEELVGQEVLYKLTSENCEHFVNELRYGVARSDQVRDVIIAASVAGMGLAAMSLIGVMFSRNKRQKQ
Summary of the method: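 IC50 from non-linear fits of fluorescence rise (480/530 nm, 10 min) after adding Red/Green BODIPY PC-A2 mixed with DOPC/DOPG/cholesterol liposomes. Recombinant His-tagged human enzyme, bacterially expressed, was first exposed to inhibitor (2 nM–50 μM final) for 4 min in 50 mM Tris pH 8.5, 100 mM NaCl, 5 mM glutathione.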

[2] = test system: picornaviruses (CVB1, HRV-A2, HRV-A23, EV-68); test: Anti-picornavirus cytopathic effect (CPE) reduction assay on HeLa H1 cells; assay type: cell-based; details: Enterovirus B, HeLa H1 cells, 48 h, category from averaging the EC50 values from four picornaviruses (CVB1, HRV-A2, HRV-A23, EV68), read-out: EC50 values of the compounds determined in the anti-picornavirus assay
Summary of the method: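 Cytopathic-effect protection: EC50 from non-linear regression of cell viability (CellTiterBlue, 560/590 nm) 48 h post-infection, scaled between infected and mock-infected vehicle wells. Compound dilutions added to HeLa H1 cells 2 h before virus (MOI causing complete CPE within 2 days), in DMEM + 2% FBS; categories average the four viruses.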

SMILES	IC50 [1]	EC50 ([2]; HeLa H1, 48 h)	EC50 ([2]; CVB1|EV68|HRVA2|HRVA23, HeLa H1, 48 h)
CC(C)C(=O)NCCNC(=O)C(=O)[C@H]1CCC(=O)N1Cc1ccccc1 [FP 331, N-(2-{2-[(2R)-1-Benzyl-5-oxopyrrolidin-2-yl]-2-oxoacetamido}ethyl)-2-methyl-propanamide]	< 1 µM	1 to 10 µM	
CC(C(=O)C(=O)NCC1CC1)N(C=O)Cc1ccccc1 (stereo not drawn) [FP 37, 3-(N-Benzylformamido)-N-(cyclopropyylmethyl)-2-oxobutanamide]	< 1 µM	< 1 µM	
C[C@@H]1C[C@H]1NC(=O)C(=O)[C@H]1CCC(=O)N1Cc1ccccc1 [FP 271, 2-[(2R)-1-Benzyl-5-oxopyrrolidin-2-yl]-N-[(1R,2R)-2-methylcyclopropyl]-2-oxoacetamide]	< 1 µM	< 1 µM	
O=C(NC1CC1)C(=O)C1CCC(=O)N1Cc1cccc(Cl)c1 (stereo not drawn) [FP 240, 2-{1-[(3-Chlorophenyl)methyl]-5-oxopyrrolidin-2-yl}-N-cyclopropyl-2-oxoacetamide]	< 1 µM	1 to 10 µM	
CC(C(=O)C(=O)NCc1cccc(Cl)c1)N(C)C(=O)c1ccccc1 (stereo not drawn) [FP 160, N-[(3-Chlorophenyl)methyl]-3-(N-methyl-1-phenylformamido)-2-oxobutanamide]	< 1 µM	1 to 10 µM	
CCC(C(=O)C(=O)NCC1CCCCC1)N(C=O)CC1CN(C(=O)OC(C)(C)C)C1 (stereo not drawn) [FP 61, tert-Butyl 3-[(NM{1-[(cyclohexylmethyl)carbamoyl]-1-oxobutan-2-yl}formamido)methyl]-azetidine-1-carboxylate]	< 1 µM	1 to 10 µM	
O=C(NC1CCC1)C(=O)[C@H]1CCC(=O)N1Cc1ccccc1 [FP 237, 2-[(2R)-1-Benzyl-5-oxopyrrolidin-2-yl]-N-cyclobutyl-2-oxoacetamide]	< 1 µM	< 1 µM	
CC(C)CNC(=O)C(=O)C(C)N(C=O)CC(F)(F)F (stereo not drawn) [FP 46, N-(2-Methylpropyl)-2-oxo-3-[N-(2,2,2-trifluoroethyl)formamido]butanamide]	< 1 µM	1 to 10 µM	
O=C(NCC1CCOCC1)C(=O)C1CCC(=O)N1Cc1ccc(Cl)cc1 (stereo not drawn) [FP 235, 2-{1-[(4-Chlorophenyl)methyl]-5-oxopyrrolidin-2-yl}-N-[(oxan-4-yl)methyl]-2-oxoacetamide]	< 1 µM	1 to 10 µM	
CCC(C(=O)C(=O)NCc1cccc(Cl)c1)N(C=O)c1ccccc1OC (stereo not drawn) [FP 12, N-[(3-Chlorophenyl)methyl]-3-[N-(2-methoxyphenyl)formamido]-2-oxopentanamide]	< 1 µM	1 to 10 µM	
CC(C(=O)C(=O)NCC1CC1)N(C=O)CC1CCN(C(=O)C2CCCCC2)CC1 (stereo not drawn) [FP 81, 3-{N-[(1-Cyclohexanecarbonylpiperidin-4-yl)methyl]formamido}-N-(cyclopropylmethyl)-2-oxobutanamide]	1 to 10 µM	> 10 µM	
O=C(NCCCO)C(=O)C1CCC(=O)N1Cc1ccc(Cl)cc1 (stereo not drawn) [FP 275, 2-{1-[(4-Chlorophenyl)methyl]-5-oxopyrrolidin-2-yl}-N-(3-hydroxypropyl)-2-oxoacetamide]	< 1 µM	> 10 µM	
CC(C)CC(C(=O)C(=O)NCC1CC1)N(C=O)C[C@@H]1CCOC1 (stereo partly drawn) [FP 64, N-(Cyclopropylmethyl)-5-methyl-2-oxo-3-(N{[(3S)-oxolan-3-yl]methyl}formamido) hexanamide]	< 1 µM	1 to 10 µM	
COc1ccccc1CNC(=O)C(=O)C(C)N(C=O)c1ccccc1OC (stereo not drawn) [FP 95, 3-[N-(2-Methoxyphenyl)formamido]-N-[(2-methoxyphenyl)methyl]-2-oxobutanamide]	< 1 µM	1 to 10 µM	
CC(OCC1CCOCC1)C(=O)C(=O)NCC1CCCC1 (stereo not drawn) [FP 132, N-(Cyclopentylmethyl)-3-[(oxan-4-yl)methoxy]-2-oxobutanamide]	< 1 µM	< 1 µM	
COC(=O)CNC(=O)C(=O)C(C)N(C=O)Cc1ccccc1 (stereo not drawn) [FP 56, Methyl 2-[3-(N-benzylformamido)-2-oxobutanamido]acetate]	< 1 µM	> 10 µM	
CC(C)CC(C(=O)C(N)=O)N(C=O)Cc1ccccc1 (stereo not drawn) [FP 199, 3-(N-Benzylformamido)-5-methyl-2-oxohexanamide]	< 1 µM	> 10 µM	
O=C(NCC1(CO)CC1)C(=O)C1CCC(=O)N1Cc1ccc(Cl)cc1 (stereo not drawn) [FP 276, 2-{1-[(4-Chlorophenyl)methyl]-5-oxopyrrolidin-2-yl}-N-{[1-(hydroxymethyl)cyclopropyl]-methyl}-2-oxoacetamide]	< 1 µM	1 to 10 µM	
O=C(NC1CC1)C(=O)C1CCC(=O)N1Cc1ccccc1 (stereo not drawn)	< 1 µM		1 to 10 µM
CC(C(=O)C(=O)NCC1CCCCC1)N(C=O)CC(F)(F)F (stereo not drawn) [FP 50, N-(Cyclohexylmethyl)-2-oxo-3-[N-(2,2,2-trifluoroethyl)formamido]butanamide]	< 1 µM	< 1 µM	
CC(C(=O)C(=O)NCC1CCCCC1)N(C=O)CC1CCOCC1 (stereo not drawn) [FP 49, N-(Cyclohexylmethyl)-3-{N-[(oxan-4-yl)methyl]formamido}-2-oxobutanamide]	< 1 µM	< 1 µM	
O=C(N[C@@H]1C[C@@H]1F)C(=O)C1N(Cc2ccccc2)C(=O)CC12CC2 (stereo partly drawn) [FP 346, 2-{5-Benzyl-6-oxo-5-azaspiro[2.4]heptan-4-yl}-N-[(1R,2S)-2-fluorocyclopropyl]-2-oxoacetamide]	< 1 µM	< 1 µM	
CC(C)NC(=O)C(=O)C(C)N(C=O)CC(C)(C)C (stereo not drawn) [FP 29, 3-[N-(2,2-Dimethylpropyl)formamido]-2-oxo-N-(propan-2-yl)butanamide]	< 1 µM	1 to 10 µM	
O=C(NC1CN(S(=O)(=O)C2CCCC2)C1)C(=O)[C@H]1CCC(=O)N1Cc1ccccc1 [FP 322, 2-[(2R)-1-Benzyl-5-oxopyrrolidin-2-yl]-N-[1-(cyclopentanesulfonyl)azetidin-3-yl]-2-oxoacetamide]	< 1 µM	< 1 µM	
CC(=O)N1CCC(CN(C=O)C(C)C(=O)C(=O)NCC2CCCCC2)CC1 (stereo not drawn) [FP 79, 3-{N-[(1-Acetylpiperidin-4-yl)methyl]formamido}-N-(cyclohexylmethyl)-2-oxobutanamide]	1 to 10 µM	> 10 µM	
O=C(NCC1CCCCC1)C(=O)C1CCC(=O)N1CCC1CCOCC1 (stereo not drawn) [FP 245, N-(Cyclohexylmethyl)-2-{1-[2-(oxan-4-yl)ethyl]-5-oxopyrrolidin-2-yl}-2-oxoacetamide]	< 1 µM	1 to 10 µM	
CC(OCC1CCOCC1)C(=O)C(=O)NCC1CC1 (stereo not drawn) [FP 121, N-(Cyclopropylmethyl)-3-[(oxan-4-yl)methoxy]-2-oxobutanamide]	< 1 µM	1 to 10 µM	
O=C(NC1CC1)C(=O)C1CCC(=O)N1CCc1ccccc1 (stereo not drawn) [FP 251, N-Cyclopropyl-2-oxo-2-[5-oxo-1-(2-phenylethyl)pyrrolidin-2-yl]acetamide]	< 1 µM	1 to 10 µM	
CC(=O)NCCCCCCNC(=O)C(=O)C1CCC(=O)N1Cc1ccccc1 (stereo not drawn) [FP 328, 2-(1-Benzyl-5-oxopyrrolidin-2-yl)-N-(6-acetamidohexyl)-2-oxoacetamide]	< 1 µM	1 to 10 µM	
O=C(NCCO)C(=O)C1CCC(=O)N1Cc1ccc(Cl)cc1 (stereo not drawn) [FP 256, 2-{1-[(4-Chlorophenyl)methyl]-5-oxopyrrolidin-2-yl}-N-(2-hydroxyethyl)-2-oxoacetamide]	< 1 µM	1 to 10 µM	

Reference: patent publication US11091428B2 (HAPLOGEN GMBH, priority 2016, dated 2021)
